Where a SMILES comes first, the peptide text is derived from it. Bridges are numbered along the chain shown (N, C = ends).
Tests used:
[1] = tested on: pseudotyped virus expressing SARS-CoV-2 S protein from the B.1.1.7 variant; type: cell-based
[2] = tested on: pseudotyped virus expressing SARS-CoV-2 S protein from the P.1 variant; type: cell-based

With `CC[C@H](C)[C@@H]1NC(=O)[C@H](CCC(=O)O)NC(=O)[C@@H]2CSSC[C@@H]3NC(=O)[C@H](Cc4ccc(O)cc4)NC(=O)[C@@H](NC(=O)[C@@H](NC(=O)[C@H](C)N)[C@@H](C)O)CSSC[C@@H](C(=O)N[C@@H](CCCNC(=N)N)C(=O)O)NC(=O)[C@H](CSSC[C@H](NC(=O)[C@H](CCCNC(=N)N)NC(=O)CNC(=O)[C@H]([C@@H](C)O)NC(=O)[C@H](CCCNC(=N)N)NC3=O)C(=O)N[C@@H](C)C(=O)N[C@@H]([C@@H](C)O)C(=O)N[C@@H](CCCNC(=N)N)C(=O)N[C@@H](CCC(=O)O)C(=O)N[C@@H](CO)C(=O)N[C@@H](CC(C)C)C(=O)N[C@@H](CO)C(=O)NCC(=O)N[C@@H](C(C)C)C(=O)N2)NC(=O)[C@H](CC(C)C)NC(=O)[C@H](CCCNC(=N)N)NC(=O)[C@H](Cc2ccc(O)cc2)NC(=O)[C@H](CC(C)C)NC(=O)[C@H](CCCNC(=N)N)NC(=O)CNC(=O)[C@H](CO)NC1=O` [HD5] (H-ATCYCRTGRCATRESLSGVCEISGRLYRLCCR-OH; disulfide 3-31, 5-20, 10-30 (inferred); N-terminus and C-terminus assumed) the “effect on B.1.1.7 variant (in words)” value [1] was “moderate antiviral activity”, the “inhibition of B.1.1.7 infection” value ([1]; 50 μg/mL) was 32% and the “effect on P.1 variant (in words)” value [2] was “suppressed the P.1 variant in a dose-dependent manner”. The “suppression of P1 infection” value ([2]; 50 μg/mL) was 72%.

Reference: PMC8310277 (Viruses, 2021)
